Source: US4232037A, “2,6-Dialkoxybenzamides, intermediates, pharamaceutical compositions and methods for treatment of psychotic disorders” (priority 1978, dated 1980)
Structures can show the parent of a compound that is named as a salt. Where two headings read alike, the source gives them in different places.

What was measured:
[1] = tested on: apomorphine induced stereotypies; assay: Block of apomorphine-induced stereotypies in rats (0-3 scale scoring); assay type: in vivo, Male Sprague-Dawley rats; conditions: for ED50: Rattus norvegicus, 1 h; for Stereotypies ED50: rat, hydrochloride, 60 min
Protocol: Male Sprague-Dawley rats weighing 225-275 g were used. […] The compounds were injected 60 minutes prior to apomorphine hydrochloride (1 mg/kg) which was injected subcutaneously into the neck. […] Directly after injection, the animals were placed in the cages, one in each cage. Scoring of the stereotypies were performed by two separate methods. The first scoring system was a modified version of the system introduced by Costall and Naylor (1973). […] Chewing, biting and | licking. In the second system the number of animals displaying hyperactivity caused by apomorphine were scored. […] Saline controls were always run simultaneously.

[2] = tested on: apomorphine induced hyperactivity; assay: Block of apomorphine-induced hyperactivity in rats (number of animals displaying hyperactivity); assay type: in vivo, Male Sprague-Dawley rats; conditions: for ED50: Rattus norvegicus, 1 h
Protocol: Male Sprague-Dawley rats weighing 225-275 g were used. […] The compounds were injected 60 minutes prior to apomorphine hydrochloride (1 mg/kg) which was injected subcutaneously into the neck.
Directly after injection, the animals were placed in the cages, one in each cage. Scoring of the stereotypies were performed by two separate methods. The first scoring system was a modified version of the system introduced by Costall and Naylor (1973). The strength of the stereotypy was scored on a 0-3 scale as follows:
In the second system the number of animals displaying hyperactivity caused by apomorphine were scored. […] Saline controls were always run simultaneously. ED50 's are in the first scoring system (0-3 scale), the doses which reduce the strength of the stereotypies by 50% over the observation period of 60 minutes. ED50 's of the second scoring system are the doses which reduce the number of animals showing hyperactivity by 50% over the observation period of 60 minutes.

[3] = tested on: DA receptors in the brain; assay: Apomorphine antagonism in rats (stereotypies and hyperactivity together, results in words); assay type: in vivo, Male Sprague-Dawley rats; conditions: rat, p.o., Table 3
[4] = experimental animals; cited from earlier work
[5] = in vivo; cited from earlier work
[6] = ip, i.p., 60 min before apomorphine hydrochloride 1 mg/kg s.c., 60 min observation, read-out: Stereotypies ED50
[7] = po, p.o., same test system, read-out: Stereotypies ED50
[8] = po, p.o., same test system, read-out: Stereotypies ED50 (in parentheses, mg/kg)
[9] = ip, i.p., 60 min before apomorphine hydrochloride 1 mg/kg s.c., 60 min observation, read-out: Hyperactivity ED50
[10] = po, p.o., same test system, read-out: Hypractivity ED50
[11] = po, p.o., same test system, read-out: Hypractivity ED50 (in parentheses, mg/kg)
[12] = i.p., 60 min before apomorphine hydrochloride 1 mg/kg s.c., 60 min observation

Row | SMILES | ED50 [1, 6] [µmol/kg] | ED50 [1, 7] [µmol/kg] | ED50 [1, 8] [mg/kg] | ED50 [2, 9] [µmol/kg] | ED50 [2, 10] [µmol/kg] | ED50 [2, 11] [mg/kg] | further results
1 | CCN1CCCC1CNC(=O)c1c(OC)ccc(Br)c1OC.Cl (racemic) [Example 7, N-Ethyl-2-(3-bromo-2,6-dimethoxybenzamidomethyl)pyrrolidine hydrochloride] | 23 | 47 | 19 | 11 | 17 | 7 | –
2 | CCN1CCCC1CNC(=O)c1c(OC)ccc(Cl)c1OC (racemic) [Example 8, N-Ethyl-2-(3-chloro-2,6-dimethoxybenzamidomethyl)pyrrolidine hydrochloride] | 47 | – | – | 30 | – | – | –
3 | CCN1CCCC1CNC(=O)c1c(OC)c(Br)cc(Br)c1OC.Cl (racemic) [Example 9, N-Ethyl-2-(3,5-dibromo-2,6-dimethoxybenzamidomethyl) pyrrolidine hydrochloride] | 5.3 | 8.2 | 4 | 1.8 | 5.5 | 2.7 | –
4 | CCN1CCCC1CNC(=O)c1c(OC)c(Cl)cc(Cl)c1OC (racemic) [Example 10, N-Ethyl-2-(3,5-dichloro-2,6-dimethoxybenzamidomethyl) pyrrolidine] | 5.8 | – | – | 3 | – | – | –
5 | CCN1CCCC1CNC(=O)c1c(OC)c(Cl)cc(Br)c1OC (racemic) [Example 11, N-Ethyl-2-(3-bromo-5-chloro-2,6-dimethoxybenzamidomethyl) pyrrolidine] | 6.2 | – | – | 3.9 | – | – | –
6 | CCN1CCCC1CNC(=O)c1c(OC)c(Br)cc(Br)c1OC (single isomer, unassigned) [Example 12, N-Ethyl-2-(3,5-dibromo-2,6-dimethoxybenzamidomethyl) pyrrolidine] | > 178 | – | – | ~11 | – | – | –
7 | CCN1CCCC1CNC(=O)c1c(OC)c(Br)cc(Br)c1OC (single isomer, unassigned) [Example 13, N-Ethyl-2-(3,5-dibromo-2,6-dimethoxybenzamidomethyl) pyrrolidine hydrochloride] | 3.3 | – | – | 0.33 | – | – | –
8 | CCN1CCCC1CNC(=O)c1c(OC)ccc(Br)c1OC.Cl (single isomer, unassigned) [Example 14, N-Ethyl-2-(3-bromo-2,6-dimethoxybenzamidomethyl) pyrrolidine hydrochloride] | – | – | – | – | – | – | Stereotypies ED50 [1, 12]: 5.6 µmol/kg
9 | CCN1CCCC1CNC(=O)c1c(OC)ccc(Br)c1OC.Cl (single isomer, unassigned) [Example 15, N-Ethyl-2-(3-bromo-2,6-dimethoxybenzamidomethyl) pyrrolidine hydrochloride] | – | – | – | – | – | – | Stereotypies ED50 [1, 12]: > 196 µmol/kg; Hyperactivity ED50 ([2]; rat, i.p., 60 min before apomorphine hydrochloride 1 mg/kg s.c., 60 min observation, hydrochloride, 60 min): ~ 123 μmol/kg
10 | CCN1CCCC1CNC(=O)c1cc(S(N)(=O)=O)ccc1OC (stereo not shown) [Sulpiride, reference compound] | 293 | > 586 | > 200 | 50 | > 586 | > 200 | activity after oral administration [3]: lost all activity; catalepsy [4]: weak catalepsy; extrapyramidal side effects [5]: weak extrapyramidal side effects
